# Where two headings read alike, the source gives them in different places.
# Columns and labels:
# [1] = tested on: U87 cells (human glioblastoma, αVβ3+); assay: cells; format: cell-based
# Description: (§1) The cell lines were treated with different concentrations of the free drug α-amanitin and conjugates 7–11 for 96 hours. […]
# (§2) described recently.[S1] The SNP profiles matched known profiles or were unique. The purity of the cell lines was validated using the Multiplex cell Contamination Test by Multiplexion (Heidelberg, Germany) as described recently.[S2] No mycoplasma, SMRV or interspecies contamination was detected. U87-MG, MDA-MB 468 and A549 cells were cultivated continuously for not more than 3 months in MEM Eagle´s, DMEM or Ham´s F12 medium, respectively, supplemented with 10% heat inactivated fetus calf serum, L-glutamine and antibiotics. Cell lines were maintained at 37 °C and 5% CO2 in a high humidity atmosphere.
# (§3) Cell therapy and viability assay
# (§4) Cell viability assays were performed in U87-MG, A549 and MDA-MB 468 cell lines according to the following procedure: 2 × 10^3 cells/well were plated in 96-well black clear bottom plates (Perkin Elmer) and incubated overnight. 1:5 serial dilutions of compounds 7–11 were prepared in cell culture media. The compounds were added to the cell culture and incubated for additional 96 h. Starting concentration of compounds 7–11 in the wells was 1 × 10−5 M and cell viability was determined with the CellTiterGlo 2.0 assay (Promega) in accordance to manufacturer’s instructions. The cell viability was calculated in relation to the non-treated controls for each cell line. All samples were measured in triplicate. Data analysis was carried out using software GraphPad Prism (GraphPad Software Inc., La Jolla, CA, USA).
# Competition experiment of compounds 10 and 11
# The competition experiment s were performed in U87-MG and MDA-MB 468 cell lines according to the following procedure: 2 × 10^3 cells/well were plated in 96-well black clear bottom plates (Perkin Elmer) and incubated overnight. A solution containing 1 × 10−4 M of the conjugates 10 or 11 and 5 × 10−3 M of cilengitide (50-fold excess of ligand in comparison to the conjugate) was prepared in the growth medium and 1:5 serial dilutions were prepared in cell culture media. The compounds were added to cell culture and incubated for 96 h. The starting concentration of the compounds in the wells was 0.01 mM whereas that of cilengitide was 0.5 mM. The cell viability was determined with the CellTiterGlo 2.0 assay (Promega) in accordance to manufacturer’s instructions and the viability was calculated in relation to the non-treated controls for each cell line. All samples were measured in triplicate. Data analysis was carried out using software GraphPad Prism (GraphPad Software Inc., La Jolla, CA, USA).
# (§5) [S1] F. Castro, W. G. Dirks, S. Fähnrich, A. Hotz-Wagenblatt, M. Pawlita, M. Schmitt, Int. J. Cancer […]
# (§6) [S2] M. Schmitt, M. Pawlita, Nucleic Acids Res. 2009, 37, e119.
# [2] = tested on: MDA-MB-468 (αVβ3−, αVβ5+, αVβ6+, α5β1−); details: read-out: IC50 MDA-MB-468, inhibition of cell viability, 96 hours
# Description: (§7) However, it should be noted that these cell lines overexpress other integrins (α5β1 in U87, αVβ6 in MDA-MB-468, and αVβ5 in both). […]
# (§8) described recently.[S1] […] The purity of […]
# (§9) the cell lines was validated using the Multiplex cell Contamination Test by Multiplexion (Heidelberg, Germany) as described recently.[S2]
# (§10) U87-MG, MDA-MB 468 and A549 cells were cultivated continuously for not more than 3 months in MEM Eagle´s, DMEM or Ham´s F12 medium, respectively, supplemented with 10% heat inactivated fetus calf serum, L-glutamine and antibiotics. Cell lines were maintained at 37 °C and 5% CO2 in a high humidity atmosphere.
# as §3
# (§11) Cell viability assays were performed in U87-MG, A549 and MDA-MB 468 cell lines according to the following procedure: 2 × 10^3 cells/well were plated in 96-well black clear bottom plates (Perkin Elmer) and incubated overnight. […]
# (§12) in cell culture media. The compounds were added to the cell culture and incubated for additional […]
# (§13) was determined with the CellTiterGlo 2.0 assay (Promega) in accordance to manufacturer’s instructions. The cell viability was calculated in relation to the non-treated controls for each cell line. All samples were measured in triplicate.
# (§14) All samples were measured in triplicate.
# [3] = tested on: U87 (αVβ3+, αVβ5+, αVβ6−, α5β1+); details: read-out: IC50 U87, inhibition of cell viability, 96 hours
# Description: as §7, §8, §9, §10, §3, §11, §12, §13, §14
# [4] = tested on: MDA-MB-468 cells (breast adenocarcinoma, αVβ3−); assay: cells; format: cell-based; details: 96 hours treatment; triplicate; read-out: IC50 MDA-MB-468 (αVβ3−), inhibition of cell viability
# Description: as §1, §2, §3
# as §4, with “USA). […]” for “USA).”
# as §5, §6
# [5] = tested on: A549 cells (human lung carcinoma, αVβ3−); assay: cells; format: cell-based; details: 96 hours treatment; triplicate; read-out: IC50 A549 (αVβ3−), inhibition of cell viability
# Description: as §1, §2, §3
# as §4, with “USA). […]” for “USA).”
# [6] = + 50-fold excess of cilengitide
smiles,measurement,setting,value
"CC[C@H](C)[C@@H]1NC(=O)CNC(=O)[C@@H]2Cc3c([nH]c4cc(OCc5ccc(NC(=O)[C@H](C)NC(=O)[C@@H](NC(=O)CCCC(=O)NCc6ccc(CN7C(=O)[C@H]8CC(=O)N[C@H](C(=O)O)CC(=O)NCC(=O)N[C@@H](CCCNC(=N)N)C(=O)NC[C@H]7C(=O)N8)cc6)C(C)C)cc5)ccc34)[S@+]([O-])C[C@H](NC(=O)CNC1=O)C(=O)N[C@@H](CC(N)=O)C(=O)N1C[C@H](O)C[C@H]1C(=O)N[C@@H]([C@@H](C)[C@@H](O)CO)C(=O)N2 [Compound 10, cyclo[DKP-isoDGR]-Val-Ala-α-amanitin]",IC50,"[1]; 96 hours treatment, triplicate, read-out: IC50 U87 (αVβ3+), inhibition of cell viability",143 ± 33.8 nM
same,more potent than α-amanitin,"[1]; in U87, A549 and MDA-MB-468 cell lines, Table 3 entry 1 vs entry 5",2.4–3.1 times
same,IC50,[2]; [6],259 ± 55.2 nM
same,IC50,[2]; without cilengitide,47 ± 21.1 nM
same,IC50,[3]; [6],106 ± 11.6 nM
same,IC50,[3]; without cilengitide,107 ± 26.8 nM
same,IC50,[4],59 ± 23.4 nM
same,IC50,[5],217 ± 98.3 nM

# From paper PMC5827777, “Synthesis and biological evaluation of RGD and isoDGR peptidomimetic-α-amanitin conjugates for tumor-targeting” (Beilstein Journal of Organic Chemistry, 2018)
